Measurements reported in patent US9249129B2, “Morpholino substituted urea derivatives as mTOR inhibitors” (CELLZOME LIMITED, priority 2010, dated 2016).
Where two headings read alike, the source gives them in different places.

What was measured:
Assay type in all cases: binding
[1] = molecular target: T1, DNA-dependent protein kinase (DNA-PK) (Homo sapiens, UniProt P78527); experiment: kinobeads assay, DNA-PK (dot blot detection)
T1 construct: endogenous in cells; host or cells: Jurkat cells (ATCC TIB-152, clone E6-1), lysate
Procedure: (§1) The compounds of the present invention as described were tested in the mTOR kinobeads assay as described below. Briefly, test compounds (at various concentrations) and the affinity matrix (1:1 mixture of beads with immobilized phenylthiazole ligand 1 and beads with immobilized phenylmorpholin-chromen ligand; WO 2009/098021) were added to cell lysate aliquots and allowed to bind to the proteins in the lysate sample. After the incubation time the beads with captured proteins were separated from the lysate. Bound proteins were then eluted and the presence of mTOR, PI3K delta (PI3 Kd) and DNA-dependent protein kinase (DNA-PK) was detected and quantified using a specific antibody in a dot blot procedure and the Odyssey infrared detection system. Dose response curves for individual kinases were generated and IC50 values calculated. Kinobeads assays for PI3 kinases (WO-A 2008/015013) and for kinase selectivity profiling (WO 2009/098021) have been previously described.
(§2) The affinity matrix (beads with immobilized phenylmorpholin-chromen ligand) was washed two times with 15 ml of 1×DP buffer containing 0.2% NP40 (IGEPAL® CA-630, Sigma, #13021) and then resupended in 5.5 ml of 1×DP buffer containing 0.2% NP40 (10% beads slurry).
(§3) 5×DP buffer: 250 mM Tris-HCl pH 7.4, 25% Glycerol, 7.5 mM MgCl2, 750 mM NaCl, 5 mM Na3VO4, filter the 5×-lysis buffer through 0.22 μm filter and store in aliquots at −80° C. The 5×DP buffer is diluted to 1×DP buffer containing 1 mM DTT and 25 mM NaF.
(§4) Stock solutions of test compounds were prepared in DMSO. In a 96 well plate 30 μl solution of diluted test compounds at 5 mM in DMSO were prepared. Starting with this solution a 1:3 dilution series (9 steps) was prepared. For control experiments (no test compound) a buffer containing 2% DMSO was used. Compound CZC00018052 served as a positive control (PI-103; Calbiochem catalogue number 528100).
(§5) Jurkat cells (ATCC catalogue number TIB-152 Jurkat, clone E6-1) were grown in 1 litre Spinner flasks (Integra Biosciences, #182101) in suspension in RPMI 1640 medium (Invitrogen, #21875-034) supplemented with 10% Fetal Bovine Serum (Invitrogen) at a density between 0.15×10^6 and 1.2×10^6 cells/ml. Cells were harvested by centrifugation, washed once with 1×PBS buffer (Invitrogen, #14190-094) and cell pellets were frozen in liquid nitrogen and subsequently stored at −80° C.
(§6) Jurkat cells were homogenized in a Potter S homogenizer in lysis buffer: 50 mM Tris-HCl, 0.8% NP40, 5% glycerol, 150 mM NaCl, 1.5 mM MgCl2, 25 mM NaF, 1 mM sodium vanadate, 1 mM DTT, pH 7.5. One complete EDTA-free tablet (protease inhibitor cocktail, Roche Diagnostics, 1873580) per 25 ml buffer was added. The material was dounced 10 times using a mechanized POTTER S, transferred to 50 ml falcon tubes, incubated for 30 minutes on ice and spun down for 10 min at 20,000 g at 4° C. (10,000 rpm in Sorvall SLA600, precooled). The supernatant was transferred to an ultracentrifuge (UZ)-polycarbonate tube (Beckmann, 355654) and spun for 1 hour at 100.000 g at 4° C. (33.500 rpm in Ti50.2, precooled). The supernatant was transferred again to a fresh 50 ml falcon tube, the protein concentration was determined by a Bradford assay (BioRad) and samples containing 50 mg of protein per aliquot were prepared. The samples were immediately used for experiments or frozen in liquid nitrogen and stored frozen at −80° C.
(§7) Jurkat cell lysate (approximately 50 mg protein per plate) was thawed in a water bath at room temperature and then kept on ice. To the thawed cell lysate 1×DP 0.8% NP40 buffer containing protease inhibitors (1 tablet for 25 ml buffer; EDTA-free protease inhibitor cocktail; Roche Diagnostics 1873580) was added in order to reach a final protein concentration of 5 mg/ml total protein. The diluted cell lysate was stored on ice. […]

[2] = molecular target: T2, PI3K delta (PI3Kd) (Homo sapiens, UniProt O00329); experiment: kinobeads assay, PI3K delta (dot blot detection)
T2 construct: endogenous in cells; host or cells: Jurkat cells (ATCC TIB-152, clone E6-1), lysate
Procedure: as §1, §2, §3, §4, §5, §6, §7

[3] = molecular target: T3, mTOR (Homo sapiens, UniProt P42345); experiment: mTOR kinobeads assay (dot blot detection)
T3 construct: endogenous in cells; host or cells: Jurkat cells (ATCC TIB-152, clone E6-1), lysate
Procedure: as §1, §2, §3, §4, §5, §6, §7

[4] = Table 2, Jurkat cell lysate, read-out: Inhibition values (IC50) DNAPK
[5] = Table 4, read-out: Inhibition values (IC50) DNAPK
[6] = Table 2, Jurkat cell lysate, read-out: Inhibition values (IC50) PI3Kd
[7] = Table 4, read-out: Inhibition values (IC50) PI3Kd
[8] = Table 2, Jurkat cell lysate, read-out: Inhibition values (IC50) mTor
[9] = Table 4, read-out: Inhibition values (IC50) mTOR

T1 sequence (P78527 whole entry): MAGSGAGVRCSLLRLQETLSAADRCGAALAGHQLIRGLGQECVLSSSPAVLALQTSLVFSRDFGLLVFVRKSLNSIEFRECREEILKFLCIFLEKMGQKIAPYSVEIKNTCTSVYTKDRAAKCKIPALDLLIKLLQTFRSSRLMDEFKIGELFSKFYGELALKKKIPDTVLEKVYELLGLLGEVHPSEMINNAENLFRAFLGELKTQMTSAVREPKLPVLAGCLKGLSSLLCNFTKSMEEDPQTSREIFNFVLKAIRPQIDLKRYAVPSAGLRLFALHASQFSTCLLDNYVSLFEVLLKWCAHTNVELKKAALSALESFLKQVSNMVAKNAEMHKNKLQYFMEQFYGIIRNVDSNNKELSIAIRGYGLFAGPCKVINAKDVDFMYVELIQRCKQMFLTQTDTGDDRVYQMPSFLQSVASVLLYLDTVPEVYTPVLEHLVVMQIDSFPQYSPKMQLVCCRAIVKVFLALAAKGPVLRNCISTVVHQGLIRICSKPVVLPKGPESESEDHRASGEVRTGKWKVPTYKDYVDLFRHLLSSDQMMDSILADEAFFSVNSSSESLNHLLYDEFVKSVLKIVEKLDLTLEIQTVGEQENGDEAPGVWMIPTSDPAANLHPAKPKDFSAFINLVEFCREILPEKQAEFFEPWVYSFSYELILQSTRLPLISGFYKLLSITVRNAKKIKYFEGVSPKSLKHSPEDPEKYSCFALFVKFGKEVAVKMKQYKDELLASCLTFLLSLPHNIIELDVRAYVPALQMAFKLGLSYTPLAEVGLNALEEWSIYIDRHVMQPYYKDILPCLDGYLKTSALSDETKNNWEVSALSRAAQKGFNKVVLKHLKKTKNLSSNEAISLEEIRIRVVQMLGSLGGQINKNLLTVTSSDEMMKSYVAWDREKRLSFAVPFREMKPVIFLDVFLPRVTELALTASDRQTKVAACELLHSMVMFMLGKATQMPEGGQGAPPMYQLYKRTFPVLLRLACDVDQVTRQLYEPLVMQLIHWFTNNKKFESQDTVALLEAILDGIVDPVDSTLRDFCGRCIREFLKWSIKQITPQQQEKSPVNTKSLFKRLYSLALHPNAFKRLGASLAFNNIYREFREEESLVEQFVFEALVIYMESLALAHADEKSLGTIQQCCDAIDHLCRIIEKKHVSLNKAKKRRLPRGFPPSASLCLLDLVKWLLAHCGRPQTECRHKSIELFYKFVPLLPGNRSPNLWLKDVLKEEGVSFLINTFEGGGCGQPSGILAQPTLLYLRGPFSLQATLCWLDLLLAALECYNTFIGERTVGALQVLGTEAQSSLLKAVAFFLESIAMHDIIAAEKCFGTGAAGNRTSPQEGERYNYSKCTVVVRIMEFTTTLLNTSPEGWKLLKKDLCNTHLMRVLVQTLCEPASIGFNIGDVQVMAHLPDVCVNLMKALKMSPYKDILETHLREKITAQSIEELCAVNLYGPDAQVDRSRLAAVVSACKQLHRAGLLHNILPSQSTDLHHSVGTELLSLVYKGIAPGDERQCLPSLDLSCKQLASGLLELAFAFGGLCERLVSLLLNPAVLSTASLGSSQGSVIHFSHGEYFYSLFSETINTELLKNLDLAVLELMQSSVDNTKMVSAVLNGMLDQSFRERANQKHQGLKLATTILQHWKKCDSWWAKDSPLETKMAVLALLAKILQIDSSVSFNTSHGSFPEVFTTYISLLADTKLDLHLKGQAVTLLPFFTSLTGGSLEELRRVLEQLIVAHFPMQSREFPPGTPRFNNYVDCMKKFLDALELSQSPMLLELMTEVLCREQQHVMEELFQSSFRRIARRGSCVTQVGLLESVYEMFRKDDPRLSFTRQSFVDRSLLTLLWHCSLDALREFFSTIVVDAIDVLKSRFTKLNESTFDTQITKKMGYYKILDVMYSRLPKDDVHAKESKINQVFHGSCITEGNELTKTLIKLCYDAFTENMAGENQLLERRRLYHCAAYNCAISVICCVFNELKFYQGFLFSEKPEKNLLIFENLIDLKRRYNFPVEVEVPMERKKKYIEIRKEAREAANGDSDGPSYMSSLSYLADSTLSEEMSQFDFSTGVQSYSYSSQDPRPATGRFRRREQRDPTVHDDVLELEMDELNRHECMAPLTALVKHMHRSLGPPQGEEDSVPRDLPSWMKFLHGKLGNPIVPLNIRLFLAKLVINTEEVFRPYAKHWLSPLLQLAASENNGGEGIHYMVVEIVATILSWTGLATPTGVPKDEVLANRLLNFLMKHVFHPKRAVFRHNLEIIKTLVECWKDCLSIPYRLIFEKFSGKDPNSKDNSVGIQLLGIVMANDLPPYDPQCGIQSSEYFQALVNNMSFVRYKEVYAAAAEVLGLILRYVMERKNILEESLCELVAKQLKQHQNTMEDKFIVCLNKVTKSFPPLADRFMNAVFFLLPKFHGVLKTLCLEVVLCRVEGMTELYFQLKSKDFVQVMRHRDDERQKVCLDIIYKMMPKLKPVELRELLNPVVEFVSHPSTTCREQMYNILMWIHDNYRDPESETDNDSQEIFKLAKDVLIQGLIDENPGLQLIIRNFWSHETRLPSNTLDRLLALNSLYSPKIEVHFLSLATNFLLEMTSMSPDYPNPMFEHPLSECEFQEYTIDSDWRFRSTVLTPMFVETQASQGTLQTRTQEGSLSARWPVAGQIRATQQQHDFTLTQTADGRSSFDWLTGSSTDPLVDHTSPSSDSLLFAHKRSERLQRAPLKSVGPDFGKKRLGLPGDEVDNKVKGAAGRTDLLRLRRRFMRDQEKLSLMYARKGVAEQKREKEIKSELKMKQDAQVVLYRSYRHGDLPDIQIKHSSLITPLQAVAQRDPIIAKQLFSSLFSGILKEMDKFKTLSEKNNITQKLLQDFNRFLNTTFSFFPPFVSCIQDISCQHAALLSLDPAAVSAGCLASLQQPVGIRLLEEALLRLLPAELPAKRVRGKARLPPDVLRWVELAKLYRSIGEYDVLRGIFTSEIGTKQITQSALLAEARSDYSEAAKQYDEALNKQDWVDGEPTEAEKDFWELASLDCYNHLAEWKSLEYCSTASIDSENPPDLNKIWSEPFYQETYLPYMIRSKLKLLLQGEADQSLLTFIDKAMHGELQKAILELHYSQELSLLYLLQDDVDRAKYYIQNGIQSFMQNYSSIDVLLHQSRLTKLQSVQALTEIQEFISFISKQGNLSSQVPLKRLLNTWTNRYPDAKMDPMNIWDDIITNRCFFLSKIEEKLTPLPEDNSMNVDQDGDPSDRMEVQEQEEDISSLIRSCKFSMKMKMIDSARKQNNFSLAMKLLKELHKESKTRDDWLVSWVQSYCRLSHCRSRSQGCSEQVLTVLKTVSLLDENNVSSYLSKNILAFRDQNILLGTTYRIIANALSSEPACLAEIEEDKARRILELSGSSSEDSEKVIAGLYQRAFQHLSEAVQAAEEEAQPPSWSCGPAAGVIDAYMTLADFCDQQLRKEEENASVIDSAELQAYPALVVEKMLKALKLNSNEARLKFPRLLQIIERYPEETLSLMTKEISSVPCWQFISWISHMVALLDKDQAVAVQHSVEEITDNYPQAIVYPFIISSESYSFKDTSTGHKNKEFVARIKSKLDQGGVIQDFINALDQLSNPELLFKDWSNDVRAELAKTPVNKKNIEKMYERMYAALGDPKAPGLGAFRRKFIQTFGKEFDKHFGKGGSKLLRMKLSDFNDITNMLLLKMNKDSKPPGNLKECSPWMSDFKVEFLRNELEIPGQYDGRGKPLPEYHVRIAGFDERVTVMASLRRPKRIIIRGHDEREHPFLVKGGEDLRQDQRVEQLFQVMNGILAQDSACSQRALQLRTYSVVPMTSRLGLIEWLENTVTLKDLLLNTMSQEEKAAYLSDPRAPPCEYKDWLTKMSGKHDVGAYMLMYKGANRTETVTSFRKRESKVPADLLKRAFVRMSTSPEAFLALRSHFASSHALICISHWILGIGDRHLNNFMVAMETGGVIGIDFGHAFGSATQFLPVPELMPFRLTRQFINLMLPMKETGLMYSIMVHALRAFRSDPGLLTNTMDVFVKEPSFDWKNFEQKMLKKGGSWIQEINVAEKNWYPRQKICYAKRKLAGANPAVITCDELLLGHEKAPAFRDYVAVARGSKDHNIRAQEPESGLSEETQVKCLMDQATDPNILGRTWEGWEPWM

| Compound | IC50 [1, 4] | IC50 [1, 5] | IC50 [2, 6] | IC50 [2, 7] | IC50 [3, 8] | IC50 [3, 9] |
| --- | --- | --- | --- | --- | --- | --- |
| O=C(Nc1ccc(-c2cc(-c3cccnc3)nc(N3CCOCC3)n2)cc1)NC1CC1 [Example 1, 1-cyclopropyl-3-(4-(2-morpholino-6-(pyridin-3-yl)pyrimidin-4-yl)phenyl)urea] | ≥ 10 µM | ≥ 10 µM | ≥ 10 µM | ≥ 10 µM | 1 to 10 µM | 1 to 10 µM |
| C[C@H]1COCCN1c1cc(-c2cccc(S(C)(=O)=O)c2)nc(-c2ccc(NC(=O)NC3CC3)cc2)n1 [Example 5, (S)-1-cyclopropyl-3-(4-(4-(3-methylmorpholino)-6-(3-(methylsulfonyl)phenyl)pyrimidin-2-yl)phenyl)urea] | ≥ 10 µM | ≥ 10 µM | ≥ 10 µM | ≥ 10 µM | 1 to 10 µM | 1 to 10 µM |
| CCNC(=O)Nc1ccc(-c2cc(-c3ccccc3NS(C)(=O)=O)nc(N3CCOC[C@@H]3C)n2)cc1 [Example 9, (S)—N-(2-(6-(4-(3-ethylureido)phenyl)-2-(3-methylmorpholino)pyrimidin-4-yl)phenyl)methanesulfonamide] | ≥ 10 µM | ≥ 10 µM | ≥ 10 µM | ≥ 10 µM | 1 to 10 µM | 1 to 10 µM |
| CCNC(=O)Nc1ccc(-c2cc(-c3ccccc3NC(C)=O)nc(N3CCOC[C@@H]3C)n2)cc1 [Example 10, (S)—N-(2-(6-(4-(3-ethylureido)phenyl)-2-(3-methylmorpholino)pyrimidin-4-yl)phenyl)acetamide] | ≥ 10 µM | ≥ 10 µM | ≥ 10 µM | ≥ 10 µM | 1 to 10 µM | 1 to 10 µM |
| CCNC(=O)Nc1ccc(-c2cc(-c3ccccc3C(=O)O)nc(N3CCOC[C@@H]3C)n2)cc1 [Example 11, (S)-2-(6-(4-(3-ethylureido)phenyl)-2-(3-methylmorpholino)pyrimidin-4-yl)benzoic acid] | ≥ 10 µM | ≥ 10 µM | ≥ 10 µM | ≥ 10 µM | 1 to 10 µM | 1 to 10 µM |
| CCNC(=O)Nc1ccc(-c2cc(-c3ccccc3C(N)=O)nc(N3CCOC[C@@H]3C)n2)cc1 [Example 12, (S)-2-(6-(4-(3-ethylureido)phenyl)-2-(3-methylmorpholino)pyrimidin-4-yl)benzamide] | ≥ 10 µM | ≥ 10 µM | ≥ 10 µM | ≥ 10 µM | 1 to 10 µM | 1 to 10 µM |
| CCNC(=O)Nc1ccc(-c2cc(-c3ccncc3)nc(N3CCOC[C@@H]3C)n2)cc1 [Example 13, (S)-1-ethyl-3-(4-(2-(3-methylmorpholino)-6-(pyridin-4-yl)pyrimidin-4-yl)phenyl)urea] | ≥ 10 µM | ≥ 10 µM | ≥ 10 µM | ≥ 10 µM | 1 to 10 µM | 1 to 10 µM |
| CCNC(=O)Nc1ccc(-c2cc(-c3ccccc3CO)nc(N3CCOC[C@@H]3C)n2)cc1 [Example 16, (S)-1-ethyl-3-(4-(6-(2-(hydroxymethyl)phenyl)-2-(3-methylmorpholino)pyrimidin-4-yl)phenyl)urea] | ≥ 10 µM | ≥ 10 µM | ≥ 10 µM | ≥ 10 µM | 1 to 10 µM | 1 to 10 µM |
| CCNC(=O)Nc1ccc(-c2cc(-c3cc[nH]n3)nc(N3CCOC[C@@H]3C)n2)cc1 [Example 18, (S)-1-ethyl-3-(4-(2-(3-methylmorpholino)-6-(1H-pyrazol-3-yl)pyrimidin-4-yl)phenyl)urea] | ≥ 10 µM | ≥ 10 µM | ≥ 10 µM | ≥ 10 µM | 1 to 10 µM | 1 to 10 µM |
| CCNC(=O)Nc1ccc(-c2cc(-c3ccccc3S(=O)(=O)NC)nc(N3CCOCC3)n2)cc1 [Example 19, 2-(6-(4-(3-ethylureido)phenyl)-2-morpholinopyrimidin-4-yl)-N-methylbenzenesulfonamide] | ≥ 10 µM | ≥ 10 µM | ≥ 10 µM | ≥ 10 µM | 1 to 10 µM | 1 to 10 µM |
| CCNC(=O)Nc1ccc(-c2cc(-c3ccccc3S(C)(=O)=O)nc(N3CCOCC3)n2)cc1 [Example 20, 1-ethyl-3-(4-(6-(2-(methylsulfonyl)phenyl)-2-morpholinopyrimidin-4-yl)phenyl)urea] | ≥ 10 µM | ≥ 10 µM | ≥ 10 µM | ≥ 10 µM | 1 to 10 µM | 1 to 10 µM |
| CNC(=O)Nc1ccc(-c2nccc(N3CCOCC3)n2)cc1 [Example 27, 1-methyl-3-(4-(4-morpholinopyrimidin-2-yl)phenyl)urea] | 1 to 10 µM | 1 to 10 µM | 1 to 10 µM | 1 to 10 µM | 1 to 10 µM | 1 to 10 µM |
| CCCNC(=O)Nc1ccc(-c2ccnc(N3CCOCC3)n2)cc1 [Example 31, 1-propyl-3-(4-(2-morpholinopyrimidin-4-yl)phenyl)urea] | 1 to 10 µM | 1 to 10 µM | ≥ 10 µM | ≥ 10 µM | 1 to 10 µM | 1 to 10 µM |
| CCCNC(=O)Nc1ccc(-c2nccc(N3CCOCC3)n2)cc1 [Example 32, 1-(4-(4-morpholinopyrimidin-2-yl)phenyl)-3-propylurea] | 1 to 10 µM | 1 to 10 µM | ≥ 10 µM | ≥ 10 µM | 1 to 10 µM | 1 to 10 µM |
| NC(=O)Nc1ccc(-c2nccc(N3CCOCC3)n2)cc1 [Example 33, 1-(4-(4-morpholinopyrimidin-2-yl)phenyl)urea] | 1 to 10 µM | 1 to 10 µM | 1 to 10 µM | 1 to 10 µM | 1 to 10 µM | 1 to 10 µM |
| CCNC(=O)Nc1ccc(-c2nccc(N3CCOCC3)n2)cc1 [Example 36, 1-ethyl-3-(4-(4-morpholinopyrimidin-2-yl)phenyl)urea] | 1 to 10 µM | 1 to 10 µM | ≥ 10 µM | ≥ 10 µM | 1 to 10 µM | 1 to 10 µM |
